Data set [1] deals with T1, human CRF1 receptor (Homo sapiens, UniProt P34998).
T1 construct: expressed in transfected cells; host or cells: CHO cells (membrane fraction)
T1 sequence (P34998 24-415): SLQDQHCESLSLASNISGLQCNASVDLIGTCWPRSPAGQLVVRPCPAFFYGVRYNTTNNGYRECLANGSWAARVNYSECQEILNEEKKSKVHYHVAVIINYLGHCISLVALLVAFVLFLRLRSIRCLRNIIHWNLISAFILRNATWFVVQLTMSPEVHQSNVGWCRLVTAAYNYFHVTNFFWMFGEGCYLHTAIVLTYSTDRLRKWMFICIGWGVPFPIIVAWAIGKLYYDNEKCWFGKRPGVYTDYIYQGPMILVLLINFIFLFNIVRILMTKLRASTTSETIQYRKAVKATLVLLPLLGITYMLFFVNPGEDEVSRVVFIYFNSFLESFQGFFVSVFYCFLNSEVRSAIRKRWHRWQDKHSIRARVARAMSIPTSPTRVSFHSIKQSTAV
The experiment in a line: Measurement of CRF Binding Inhibitory Rate (receptor binding experiment with 125I-CRF). The note with it: human CRF1 receptor expressing CHO cellular membrane fraction, 50 pM 125I-CRF, room temperature 1.5 hr, 0.05 nM to 10 μM of compound; read-out: IC50 values (CRF binding inhibition).

The structures appear in SMILES notation. Some results are limits rather than exact numbers.

For `CCC(O)c1ccc(Cl)c2nc3n(c12)CCCN3c1c(C)cc(Cl)cc1Cl` (centres unmarked) [Example 380, 1-[9-Chloro-1-(2,4-dichloro-6-methylphenyl)-1,2,3,4-tetrahydropyrimido[1,2-a]benzimidazol-6-yl]propan-1-ol], the melting point lay in the range of 210 to 211 °C.

`OC(c1cccc2nc3n(c12)CCCN3c1ccc(Cl)cc1Cl)C1CC1` (centres unmarked) [Example 95, Cyclopropyl[1-(2,4-dichlorophenyl)-1,2,3,4-tetrahydropyrimido[1,2-a]benzimidazol-6-yl]methanol] displayed a melting point of 208 to 209 °C.

Molecule `CCC(O)c1ccc(Cl)c2nc3n(c12)CCCN3c1ccc(Cl)cc1Cl` (centres unmarked) [Example 112, 1-[9-Chloro-1-(2,4-dichlorophenyl)-1,2,3,4-tetrahydropyrimido[1,2-a]benzimidazol-6-yl]propan-1-ol] came in with a melting point of 244 to 245 °C.

Molecule `Cc1nc(O)nc(C)c1N1CCCn2c1nc1c(Cl)ccc(C(OC(F)F)C(F)(F)F)c12` (centres unmarked) [Example 215, 5-{9-Chloro-6-[1-(difluoromethoxy)-2,2,2-trifluoroethyl]-3,4-dihydropyrimido[1,2-a]benzimidazol-1(2H)-yl}-4,6-dimethylpyrimidin-2-ol] gave a melting point of 208 to 210 °C.

As to `N#Cc1cccc2nc3n(c12)CCCN3c1ccc(Cl)cc1Cl` [Example 84, 1-(2,4-Dichlorophenyl)-1,2,3,4-tetrahydropyrimido[1,2-a]benzimidazole-6-carbonitrile], the melting point was in the range of 170 to 171 °C.

For `CN(C)C(=O)c1cccc2nc3n(c12)CCCN3c1ccc(Cl)cc1Cl` [Example 86, 1-(2,4-Dichlorophenyl)-N,N-dimethyl-1,2,3,4-tetrahydropyrimido[1,2-a]benzimidazole-6-carboxamide], the melting point was in the range of 212 to 213 °C.

Molecule `CCC(CC)c1ccc(Cl)c2nc3n(c12)CCN3C(=O)c1c(C)cc(C)cc1C` [Example 229, 8-Chloro-5-(1-ethylpropyl)-1-[(2,4,6-trimethylphenyl)carbonyl]-2,3-dihydro-1H-imidazo[1,2-a]benzimidazole] returned a melting point of 234 to 236 °C.

`COc1nc(C)c(N2CCCn3c2nc2cccc(C(O)C(F)(F)F)c23)c(C)n1` (centres unmarked) [Example 517, 2,2,2-Trifluoro-1-[1-(2-methoxy-4,6-dimethylpyrimidin-5-yl)-1,2,3,4-tetrahydropyrimido[1,2-a]benzimidazol-6-yl]ethanol] showed a melting point of 296 to 299 °C.

In turn, `O=S(=O)(CC(F)(F)F)NC(c1ccc(Cl)c2nc3n(c12)CCCN3c1c(Cl)cc(Cl)cc1Cl)C(F)(F)F` (centres unmarked) [Example 417, N-{1-[9-Chloro-1-(2,4,6-trichlorophenyl)-1,2,3,4-tetrahydropyrimido[1,2-a]benzimidazol-6-yl]-2,2,2-trifluoroethyl}-2,2,2-trifluoroethanesulfonamide] showed a melting point of 237 to 239 °C.

Molecule `Cc1nc(N2CCCCC2)ccc1N1CCCn2c1nc1c(Cl)ccc(C(OC(F)F)C(F)(F)F)c12` (centres unmarked) [Example 295, 9-Chloro-6-[1-(difluoromethoxy)-2,2,2-trifluoroethyl]-1-(2-methyl-6-piperidin-1-ylpyridin-3-yl)-1,2,3,4-tetrahydropyrimido[1,2-a]benzimidazole] gave a melting point of 164 to 167 °C.

With `CCC(c1cccc2nc3n(c12)CCCN3c1ccc(Cl)cc1Cl)N(C)C` (centres unmarked) [Example 203, 1-[1-(2,4-Dichlorophenyl)-1,2,3,4-tetrahydropyrimido[1,2-a]benzimidazol-6-yl]-N,N-dimethylpropan-1-amine], the melting point lay in the range of 144 to 145 °C.

In turn, `COc1nc(C)c(N2CCCn3c2nc2c(OC)ccc(C(OC(F)F)C(F)(F)F)c23)c(C)n1` (centres unmarked) [Example 526, 6-[1-(Difluoromethoxy)-2,2,2-trifluoroethyl]-9-methoxy-1-(2-methoxy-4,6-dimethylpyrimidin-5-yl)-1,2,3,4-tetrahydropyrimido[1,2-a]benzimidazole] came in with a melting point of 201 to 203 °C.

Molecule `CCN(CC)c1cccc2nc3n(c12)CCCN(C)C3c1ccc(Cl)cc1Cl` (centres unmarked) [Example 510, 1-(2,4-Dichlorophenyl)-N,N-diethyl-2-methyl-2,3,4,5-tetrahydro-1H-[1,4]diazepino[1,2-a]benzimidazol-7-amine] came in with a melting point of 132 to 133 °C.

`Cc1nc(NC2CC2)ccc1N1CCCn2c1nc1c(Cl)ccc(C(OC(F)F)C(F)(F)F)c12` (centres unmarked) [Example 299, 5-{9-Chloro-6-[1-(difluoromethoxy)-2,2,2-trifluoroethyl]-3,4-dihydropyrimido[1,2-a]benzimidazol-1(2H)-yl}-N-cyclopropyl-6-methylpyridin-2-amine] came in with a melting point of 168 to 170 °C.

As to `CN(C)Cc1cccc2nc3n(c12)CCCN3c1ccc(Cl)cc1Cl` [Example 87, 1-[1-(2,4-Dichlorophenyl)-1,2,3,4-tetrahydropyrimido[1,2-a]benzimidazol-6-yl]-N,N-dimethylmethanamine], the melting point was 158 to 159 °C.

`CCN(CC)c1cccc2nc3n(c12)CC(CC(=O)OC)N3c1ccc(Cl)cc1Cl` (centres unmarked) [Example 72, Methyl [1-(2,4-dichlorophenyl)-5-(diethylamino)-2,3-dihydro-1H-imidazo[1,2-a]benzimidazol-2-yl]acetate] had a melting point of 137 to 138 °C.

For `CCC(CC)c1ccc(Cl)c2nc3n(c12)CCCCN3c1c(C)nn(C)c1C` [Example 24, 10-Chloro-7-(1-ethylpropyl)-1-(1,3,5-trimethyl-1H-pyrazol-4-yl)-2,3,4,5-tetrahydro-1H-[1,3]diazepino[1,2-a]benzimidazole], the IC50 in data set [1] is under 1000 nM.

Regarding `CCC(OC(=O)CC(C)(C)O)c1ccc(Cl)c2nc3n(c12)CCCN3c1ccc(Cl)cc1Cl` (centres unmarked) [Example 444, 1-[9-Chloro-1-(2,4-dichlorophenyl)-1,2,3,4-tetrahydropyrimido[1,2-a]benzimidazol-6-yl]propyl 3-hydroxy-3-methylbutanoate], the IC50 in data set [1] was under 1000 nM.

Consider `CCC(CC)c1ccc(Cl)c2nc3n(-c4c(C)cc(Cl)cc4OC)c(Cl)cn3c12` [Example 10, 2,8-Dichloro-1-(4-chloro-2-methoxy-6-methylphenyl)-5-(1-ethylpropyl)-1H-imidazo[1,2-a]benzimidazole], for which the IC50 in data set [1] was under 1000 nM.

Turning to `CCC(OC1CC1)c1ccc(Cl)c2nc3n(c12)CCCN3c1ccc(OC)cc1Cl` (centres unmarked) [Example 474, 9-Chloro-1-(2-chloro-4-methoxyphenyl)-6-[1-(cyclopropyloxy)propyl]-1,2,3,4-tetrahydropyrimido[1,2-a]benzimidazole], the IC50 in data set [1] is under 1000 nM.

Turning to `COC(=O)c1ccc(Cl)c2nc3n(c12)CCCN3c1ncc(C)nc1C` [Example 175, Methyl 9-chloro-1-(3,5-dimethylpyrazin-2-yl)-1,2,3,4-tetrahydropyrimido[1,2-a]benzimidazole-6-carboxylate], the IC50 in data set [1] was under 1000 nM.

For `C=CCC(O)c1ccc(Cl)c2nc3n(c12)CCCN3c1c(C)cc(Cl)cc1Cl` (centres unmarked) [Example 383, 1-[9-Chloro-1-(2,4-dichloro-6-methylphenyl)-1,2,3,4-tetrahydropyrimido[1,2-a]benzimidazol-6-yl]but-3-en-1-ol], the IC50 in data set [1] was under 1000 nM.

Consider `O=[N+]([O-])c1ccc(Cl)c2nc3n(c12)CCCN3c1ccc(Cl)cc1Cl` [Example 99, 9-Chloro-1-(2,4-dichlorophenyl)-6-nitro-1,2,3,4-tetrahydropyrimido[1,2-a]benzimidazole], for which the IC50 in data set [1] is under 1000 nM.

A word on the melting point: it is the temperature of the solid-liquid transition. As usually defined, the IC50 is the concentration that gives 50% inhibition.

Values taken from patent US8785460B2, “Tricyclic compounds and use thereof” (Takeda Pharmaceutical Company Limited, priority 2008, dated 2014).
